# Experimental data from patent US20260274833A1 (NiKang Therapeutics, Inc., priority 2022, published 2026).
# Biological target: T1, CDK2 (Homo sapiens, UniProt P24941)
# T1 construct: endogenous in cells; host or cells: OVCAR3 cells
# Test: Phospho-RB measurement in OVCAR3 cells (HTRF phospho-RB cellular kit)
# Type: cell-based
# Settings: inhibition of RB phosphorylation at S807/811 (HTRF, TR-FRET ratio 665/620), 24 h compound treatment, 0.3 to 10,000 nM
# Description: Biological Example 1: Phospho-RB Measurement in OVCAR3 Cells
# The ability of compounds of Formula (I) to inhibit CDK2 was determined in OVCAR3 cells by measuring inhibition of phosphorylation of RB protein at S780 and S807/811. Phosphorylation of RB protein at S807/811 were measured using HTRF phospho-RB cellular kits (Cat #64RBS807PEG) from Cisbio.
# On Day 1, OVCAR3 cells were seeded into 96-well tissue-culture treated plates at 20,000 cells/well in 200 μL and incubated overnight at 37° C. in CO2 atmosphere. On Day 2, the cells were treated with test compounds at concentrations from 0.3 to 10,000 nM using HP D300 digital dispenser. Twenty-four hours after compound treatment, cell culture media was removed by flicking the plate and tapping the plate against clean paper towel. Immediately 30 μL 1× lysis buffer was supplemented from the kit and the plate was incubated at room temperature on shaker for 30 min. After homogenization by pipetting up and down, 8 μL cell lysate from 96-well cell culture plate was transferred to 384-well small volume white detection plate. 2 μL premixed detection solution was added and the plate was covered with sealer. To prepare the detection solution, d2 conjugated-phospho-RB antibody and Eu-cryptate conjugated phosphor-RB antibody were diluted into detection buffer following manufacturer's instruction.
# Detection plates were incubated for 4 h at room temperature and read on ClarioStar (BMG Labtech) in TR-FRET mode ([…]). The TR-FRET ratio (665 nM/620 nM) was plotted against the compound concentration and normalized to DMSO controls. Half maximal inhibition concentration (IC50) values are calculated with a four-parameter logistic fit using GraphPad Prism (version 8; La Jolla, CA).
row,IC50 [nM],SMILES
1,23.1,"CN1CC2CCC(C1)N2c1nc(-c2cccc(NS(=O)(=O)N3Cc4cccc(C(F)(F)F)c4C3)c2F)c(-c2ccnc(NC3CC4(C3)CS(=O)(=O)C4)n2)s1 [Example 32, N-(3-(5-(2-((2,2-dioxido-2-thiaspiro-[3.3]-heptan-6-yl)amino)pyrimidin-4-yl)-2-(3-methyl-3,8-diazabicyclo[3.2.1]-octan-8-yl)-thiazol-4-yl)-2-fluoro-phenyl)-4-(trifluoro-methyl)isoindoline-2-sulfonamide]"
2,739,O=S1(=O)CC2(CC(Nc3nccc(-c4sc(C56CC(C(F)(F)F)(C5)C6)nc4-c4cccc(NS(=O)(=O)N5CCc6ccccc65)c4F)n3)C2)C1 [Example 281]
3,89,"CC(C)(C)c1nc(-c2cccc(NS(=O)(=O)N3CCc4ccc(C#N)cc43)c2F)c(-c2ccnc(N[C@H]3[C@@H]4CS(=O)(=O)C[C@@H]43)n2)s1 [Example 223, N-(3-(2-(tert-butyl)-5-(2-(((1R,5S,6r)-3,3-dioxido-3-thiabicyclo [3.1.0]hexan-6-yl)amino)pyrimidin-4-yl)thiazol-4-yl)-2-fluorophenyl)-6-cyanoindoline-1-sulfonamide]"
4,919,"CN(C1CCC1)S(=O)(=O)Nc1cccc(-c2nc(C(C)(C)C)sc2-c2ccnc(NC3CCN(S(=O)(=O)N4CCNCC4)CC3)n2)c1F [Example 107, N-(3-(2-(tert-butyl)-5-(2-((1-(piperazin-1-yl-sulfonyl)piperidin-4-yl)amino)-pyrimidin-4-yl)thiazol-4-yl)-2-fluoro-phenyl)(N-methyl-N-cyclo-butylamine)-sulfonamide]"
5,55.7,"O=S1(=O)CC2(CC(Nc3nccc(-c4sc(C56CC(C5)C6)nc4-c4cccc(NS(=O)(=O)N5CCc6ccc(Cl)cc65)c4F)n3)C2)C1 [Example 21, N-(3-(2-(bicyclo [1.1.1]pentan-1-yl)-5-(2-((2,2-dioxido-2-thiaspiro[3.3]heptan-6-yl)amino)-pyrimidin-4-yl)thiazol-4-yl)-2-fluorophenyl)-6-chloroindoline-1-sulfonamide]"
6,58,"CC(C)(C)c1nc(-c2cccc(NS(=O)(=O)N3CCc4ccccc43)c2F)c(-c2ccnc(NC3CCN(S(C)(=O)=O)CC3)n2)s1 [Example 73, N-(3-(2-(tert-butyl)-5-(2-((1-(methylsulfonyl)-piperidin-4-yl)amino)-pyrimidin-4-yl)thiazol-4-yl)-2-fluoro-phenyl)indoline-1-sulfonamide]"
7,3030,"CC(C)(C)c1nc(-c2cccc(NS(=O)(=O)N3CCN(S(C)(=O)=O)CC3)c2F)c(-c2ccnc(NC3CCN(S(C)(=O)=O)CC3)n2)s1 [Example 93, N-(3-(2-(tert-butyl)-5-(2-((1-(methylsulfonyl)piperidin-4-yl)amino)-pyrimidin-4-yl)thiazol-4-yl)-2-fluorophenyl)-4-(methylsulfonyl)-piperazine-1-sulfonamide]"
8,850,"CC(C)(C)c1nc(-c2cccc(NS(=O)(=O)N3CCCCc4ccccc43)c2F)c(-c2ccnc(NC3CCN(S(C)(=O)=O)CC3)n2)s1 [Example 82, N-(3-(2-(tert-butyl)-5-(2-((1-(methylsulfonyl)piperidin-4-yl)amino)-pyrimidin-4-yl)thiazol-4-yl)-2-fluorophenyl)-2,3,4,5-tetrahydro-1H-benzo[b]azepine-1-sulfonamide]"
9,390,"CC(C)(C)c1nc(-c2cccc(NS(=O)(=O)N3CCNc4ccccc4C3)c2F)c(-c2ccnc(NC3CCN(S(=O)(=O)N4CCNCC4)CC3)n2)s1 [Example 116, N-(3-(2-(tert-butyl)-S-(2-((1-(piperazin-1-ylsulfonyl)piperidin-4-yl)amino)-pyrimidin-4-yl)thiazol-4-yl)-2-fluorophenyl)-1,2,3,5-tetrahydro-4H-benzo[e][1,4] diazepine-4-sulfonamide]"
10,908,"CN1CCN(S(=O)(=O)N2CCC(Nc3nccc(-c4sc(C(C)(C)C)nc4-c4cccc(NS(=O)(=O)N(C)C5CCC5)c4F)n3)CC2)CC1 [Example 111, N-(3-(2-(tert-butyl)-5-(2-((1-((4-methylpiperazin-1-yl)sulfonyl)piperidin-4-yl)amino)pyrimidin-4-yl)thiazol-4-yl)-2-fluorophenyl)-(N-methyl-N-cyclobutylamine)-sulfonamide]"
11,72.5,"CN1CC2CCC(C1)N2c1nc(-c2cccc(NS(=O)(=O)N3Cc4ccccc4C3)c2F)c(-c2ccnc(NC3CC4(C3)CS(=O)(=O)C4)n2)s1 [Example 15, N-(3-(5-(2-((2,2-dioxido-2-thiaspiro-[3.3]-heptan-6-yl)amino)pyrimidin-4-yl)-2-(3-methyl-3,8-diazabicyclo[3.2.1]-octan-8-yl)thiazol-4-yl)-2-fluorophenyl)-isoindoline-2-sulfonamide]"
12,1180,"CC(C)(C)c1nc(-c2cccc(NS(=O)(=O)N3CCC(F)(F)C3)c2F)c(-c2ccnc(NC3CC4(C3)CS(=O)(=O)C4)n2)s1 [Example 186, N-(3-(2-(tert-butyl)-5-(2-((2,2-dioxido-2-thiaspiro[3.3]heptan-6-yl)amino)-pyrimidin-4-yl)thiazol-4-yl)-2-fluoro-phenyl)-3,3-difluoropyrrolidine-1-sulfonamide]"
13,3170,"CC1CCCN(S(=O)(=O)Nc2cccc(-c3nc(C(C)(C)C)sc3-c3ccnc(NC4CCN(S(C)(=O)=O)CC4)n3)c2F)C1 (stereo not drawn) [Example 62, N-(3-(2-(tert-butyl)-5-(2-((1-(methylsulfonyl)-piperidin-4-yl)amino)-pyrimidin-4-yl)thiazol-4-yl)-2-fluoro-phenyl)-3-methylpiperidine-1-sulfonamide]"
14,62,"CC(C)(C)c1nc(-c2cccc(NS(=O)(=O)N3CCc4ccc(C#N)cc43)c2F)c(-c2ccnc(NC3CC4(C3)CS(=O)(=O)C4)n2)s1 [Example 170, N-(3-(2-(tert-butyl)-5-(2-((2,2-dioxido-2-thiaspiro[3.3]heptan-6-yl)amino)-pyrimidin-4-yl)thiazol-4-yl)-2-fluoro-phenyl)-6-cyano-indoline-1-sulfonamide]"
15,389,"CNC(=O)c1cccc2c1CN(S(=O)(=O)Nc1cccc(-c3nc(C(C)(C)C)sc3-c3ccnc(NC4CCN(S(C)(=O)=O)CC4)n3)c1F)C2 [Example 145, 2-(N-(3-(2-(tert-butyl)-5-(2-((1-(methyl-sulfonyl)piperidin-4-yl)amino)pyrimidin-4-yl)thiazol-4-yl)-2-fluorophenyl)-sulfamoyl)-N-methyliso-indoline-4-carboxamide]"
16,474,"CN(C)CCN(C)S(=O)(=O)N1CCC(Nc2nccc(-c3sc(C(C)(C)C)nc3-c3cccc(NS(=O)(=O)N(C)C)c3F)n2)CC1 [Example 135, 4-((4-(2-(tert-butyl)-4-(3-((N,N-dimethyl-sulfamoyl)amino)-2-fluoro-phenyl)thiazol-5-yl)pyrimidin-2-yl)amino)-N-(2-(dimethyl-amino)ethyl)-N-methylpiperidine-1-sulfonamide]"
17,3080,"CC(C)(C)c1nc(-c2cccc(NS(=O)(=O)N3Cc4ccccc4C34CC4)c2F)c(-c2ccnc(NC3CCN(S(C)(=O)=O)CC3)n2)s1 [Example 256, N-(3-(2-(tert-butyl)-5-(2-((1-(methylsulfonyl)-piperidin-4-yl)amino)-pyrimidin-4-yl)thiazol-4-yl)-2-fluoro-phenyl)spiro [cyclopropane-1,1′-isoindoline]-2′-sulfonamide]"
18,667,"CN(C)C(=O)c1ccc2c(c1)N(S(=O)(=O)Nc1cccc(-c3nc(C(C)(C)C)sc3-c3ccnc(NC4CC5(C4)CS(=O)(=O)C5)n3)c1F)CC2 [Example 198, 1-(N-(3-(2-(tert-butyl)-5-(2-((2,2-dioxido-2-thiaspiro[3.3]heptan-6-yl)amino)pyrimidin-4-yl)thiazol-4-yl)-2-fluorophenyl)sulfamoyl)-N,N-dimethylindoline-6-carboxamide]"
19,2750,"CC1(C)CN(S(=O)(=O)Nc2cccc(-c3nc(C45CC(C(F)(F)F)(C4)C5)sc3-c3ccnc(N[C@H]4CC[C@H](S(C)(=O)=O)CC4)n3)c2F)c2ccccc21 [Example 291, N-(2-fluoro-3-(5-(2-(((1r,4r)-4-(methylsulfonyl)cyclohexyl)amino)pyrimidin-4-yl)-2-(3-(trifluoromethyl)-bicyclo[1.1.1]pentan-1-yl)thiazol-4-yl)phenyl)-3,3-dimethylindoline-1-sulfonamide]"
20,192,"CS(=O)(=O)[C@H]1CC[C@H](Nc2nccc(-c3sc(C45CC(F)(C4)C5)nc3-c3cccc(NS(=O)(=O)N4CCc5ccc(C(F)(F)F)cc54)c3F)n2)CC1 [Example 276, N-(2-fluoro-3-(2-(3-fluorobicyclo-[1.1.1]pentan-1-yl)-5-(2-(((1s,4s)-4-(methylsulfonyl)-cyclohexyl)amino)-pyrimidin-4-yl)thiazol-4-yl)phenyl)-6-(trifluoromethyl) indoline-1-sulfonamide]"
21,71.9,"O=S1(=O)CC2(CC(Nc3nccc(-c4sc(C56CC(C5)C6)nc4-c4cccc(NS(=O)(=O)N5Cc6cccc(C(F)F)c6C5)c4F)n3)C2)C1 [Example 28, N-(3-(2-(bicyclo [1.1.1]pentan-1-yl)-5-(2-((2,2-dioxido-2-thiaspiro[3.3]heptan-6-yl)amino)-pyrimidin-4-yl)thiazol-4-yl)-2-fluorophenyl)-4-(difluoromethyl)-isoindoline-2-sulfonamide]"
